“Also recorded” adds a separate entry of the source.
Assays:
Format in all cases: cell-based, Pseudomonas fluorescens
[1] = test system: Pben promoter (Pben509, Pben278); experiment: Benzoate promoter (Pben) reporter gene induction (lacZ β-galactosidase / phoA alkaline phosphatase); details: for induction of the benzoate promoter (Pben509, Pben278): P. fluorescens MB101, reporter gene lacZ or phoA
Experimental: (§1) Cell growth for induction: Strains of interest were grown overnight (at 30° C. with shaking at 250 rpm) in 1×M9 minimal salts medium (diluted from a 5× preparation purchased from Fisher Scientific, Pittsburgh, Pa.) supplemented with 0.5% or 1% (w/v) glucose, 1 mM MgSO4, and trace elements (for trace elements, the present examples used a solution containing salts of sodium, magnesium, manganese, iron, and cobalt, all at less than 0.5 mg/mL final concentration). Strains were then subcultured 1:4 in the same medium to a volume of 10 or 20 mL and then induced with 0-10 mM concentrations of anthranilate or benzoate, as indicated.
(§2) Strains of interest were grown overnight at 30° C. in 1×M9 medium supplemented with 0.5% or 1% (w/v) glucose, 1 mM MgSO4, and 5L/L trace elements (as described above), and optionally tetracycline at 15 ug/mL. These were then subcultured 1:4 or 1:5 in the same medium and then induced with indicated concentrations of anthranilate, benzoate, or other inducer, for a desired amount of time (e.g., for 2, 4, 6, 8, 12, or 24 hours, or overnight). Samples were taken at indicated times and those samples were assayed for reporter gene activity. Results are reported at time points taken at a given number of hours post-induction; time points are indicated by either a numeral for the number of hours, and in some cases this number is immediately preceded by the letter “I” indicating post-induction.
(§3) We prepared enough of the following assay medium to provide for each sample well of a 96-well plate (i.e. for all those wells used, with at least one well being used for each time point measured during the reaction course for each sample): 152 μL Z buffer (0.06M Na2HPO4.7H2O, 0.04M NaH2PO4.H2O, 0.01M KCl, 0.001M MgSO4.7H2O)+8 μL 1M β-mercaptoethanol. For each 900 μL of the resulting mix, we added one drop of 0.1%SDS and two drops of CHCl3, mixed (using a vortex-type mixer), and then added 144 μL thereof to each well. 16 μL of cells were then added to each well and the plate sealed with a plastic plate sealer. The plate was then mixed (by vortex) for 10 seconds, and then equilibrated to incubation temperature (room temperature) for 5 minutes. 50 μL 4 mg/mL ONPG was then added. When a significant yellow color developed, 90 μL stop solution (1M Na2CO3) was added and the reaction time recorded. The resulting color intensity for each sample was then read at A420 and A550. In addition, the cell density of each culture providing the 16 μL of cells used in each sample was read at A600. Miller Units were calculated as follows: • 1000 * ((A420−(1.75*A550))/(time(in minutes) *0.1 * A600)). Alkaline Phosphatase Assas
(§4) For this assay we prepared SIGMA FAST (p-nitrophenyl phosphate (PNPP) substrate, from Sigma-Aldrich Corp., St. Louis, Mo.) by adding one of each tablet provided by the manufacturer (one table each PNPP and Tris; stored at −20° C.) to 20 mL ddH2O, giving a final concentration of 1 mg/mL PNPP and 0.2M Tris. At each time point, for each sample, 50 μL SIGMA FAST substrate was combined with 5 μL of cells. The result was then incubated at room temperature for 30 minutes. The resulting color intensity for each sample was then read at A410. In addition, the cell density of each culture providing the 5 μL of cells used in each tested sample was read at A600 (i.e. the cell cultures were read in a 96 well plate). The value of A410/(0.1 * A600) was then calculated to express alkaline phosphatase activity/cell.
Benzoate-inducible promoter activity was tested by fusing the DNA fragment containing the putative promoter sequence of Pben509, or of Pben278 (described below), upstream of an easily assayable reporter gene (i.e. either lacZ, which encodes β-galactosidase and was used as the chief reporter gene, orphoA). The resulting plasmid was transformed into P. fluorescens MB101. […]

[2] = test system: Pant promoter (Pant713, antR/Pant); experiment: Anthranilate promoter (Pant) reporter gene induction (lacZ / phoA); details: for induction of the anthranilate promoter: P. fluorescens, reporter gene lacZ or phoA
Experimental: as §1, §2, §3, §4
Anthranilate, like benzoate, is an inexpensive low toxic compound that can be utilized by P. fluorescens, making it an ideal compound to investigate as an inducer. […]. […] Expansion of the promoter clone to include the transcriptional activator gene 5′ of the antA open reading frame (ORF) increased expression levels of the lacZ fusion. […]

[3] = test system: Pant-Pben tandem promoter; experiment: Pant-Pben tandem promoter reporter gene induction (lacZ); details: for induction of the Pant-Pben tandem promoter: P. fluorescens
Experimental: as §1, §2, §3
However, unlike the catabolite-repressed Pben promoter, the activity of the Pant promoter was not inhibited during fermentation A fusion of these two promoters was created by linking them together, as shown in SEQ ID NO:3, i.e. by cloning a fragment antR and Pant, upstream of the Pben278 promoter fused to lacZ.

| Molecule | induction of the benzoate promoter (Pben509, Pben278) [1] | induction of the anthranilate promoter [2] | induction of the Pant-Pben tandem promoter [3] | other results |
| --- | --- | --- | --- | --- |
| O=C([O-])c1ccccc1.[Na+] [sodium benzoate] | inducible; also recorded: show β-galactosidase or alkaline phosphatase activity |  |  | induction of the benzoate promoter (Pben509, Pben278) ([1]; listed as benzoate): benzoate was indeed the inducer for Pben; induction of expression of exogenous genes, benzoate promoter ([1]; induced with 5 mM sodium benzoate): about 250 fold |
| O=C(O)/C=C\C=C/C(=O)O [cis, cis-muconate] | fail to induce |  |  |  |
| Nc1cccc(Cl)c1C(=O)O [6-chloro-anthranilate, 6-chloroanthranilate] |  | inducible |  |  |
| Nc1cc(Cl)ccc1C(=O)O [4-chloro-anthranilate] |  | inducible |  |  |
| Nc1ccccc1C(=O)O [anthranilic acid] |  | inducible | inducible |  |
| Cc1ccccc1C(=O)O [o-toluate] |  | induce this promoter as well as does anthranilate | induce this promoter as well as does anthranilate |  |
| Cc1cccc(C(=O)O)c1 [m-toluic acid] | inducible |  |  |  |
| Oc1ccccc1O [catechol] | fail to induce |  |  |  |
| Nc1c(Cl)cccc1C(=O)O [3-chloro-anthranilate] |  | inducible |  |  |
| Nc1ccccc1C(=O)[O-].[Na+] [sodium anthranilate] |  | inducible | inducible | strength of the tandem antR/Pant-Pben278 construct upon induction, compared with component promoter alone ([3]; lacZ fusion, in the presence of glucose): improved |
| Nc1ccc(Cl)cc1C(=O)O [5-chloro-anthranilate] |  | inducible |  |  |
| O=C(O)c1ccccc1 [benzoic acid] | inducible |  | inducible |  |
| Pant promoter with multi-copy antR: anthranilate-inducible promoter of P. fluorescens with the AntR activator coding sequence, a1-c1395 of SEQ ID NO:13 (nucleic acid, Construct containing the pDOW1057 Pant-Pben tandem promoter) DNA: AGCTTGCATGCCTGCAGGTTTAAACAGTCGACTCTAGACTTAATTAACTATCGCAGGCAAGCCAGCTCCCACAGATTGTTTTTCATCCAGTTCAAGTAATGCGCAGGCGCTTGCGCTGCAATGTCTGGCTGGGCGACTCATCGAACAGCTTGCGGTACTCCGCCGAAAACCGCCCCAAATGCGTAAACCCCCAACCCAGGGCGATTTCAGAGATGGTGCGGATCGAGCCCTGCTCCAGAATTTCTTGGCGCACCGCCCCCAACCGATGCTTCTTCAAATACGACATGGGCGACAGTGCGAAGTACTTGCGAAACGCATCGAACAGTTTGAAACGCGACACGCCCGCCGCCGCTTCCAGGTCTTCCAGGTGCAGCGCTTCACGGGCGTTGTCGTGGATAAATTGCCGCGCGCGGATCAGGTAGTGCGGCAGTTTCACCCCCAGCACGTCGCGCAGTTCTTCGGAGTAGTTATTCGGTTGGGCCAGGATCAGGCCCTTGATCAGCGAGCTTTCCAGGTCGCGAGTAAACGCCGCCTGCTCGTACAGTTCGCTGCTGCGCTCCAGTTCGGCGATGAAATAACGCGCCATGCGCCACCACGAAGCCGGTGCTCCGTCCACAGCATCCATCACCGACTCAAAGCGCAGCGGCGCATCAATGGGCCGTTGCAGCAAACCTTCCAGCGACTCGCTCATCGCCGCACGGGTGATTACCACCTGCAACTTGCGGCAGTCACCGGAAATCGCCAGCACCTGATGCTCATTGGGCGAAATGATCACGCCTTGGTCGCGGTTGGAACTGAGACGTTCACCGTTCTTGCTCAGCTCCTGCTCGCCCACCAGTGGCAGGCTCAAGCTGTAGCTGCTGAAGTGCTCGGCGTCTTCGATGTCGATGGTCACATCAGTGCCGTACTCGATCACGCCCAGGGTGGTGGCGCGGGATTTGAACACGTTGGCGCTGTGGTGAAAGCGCAGGCGCTCGGGGGTTGCCGTCGCCAGGCGATGGGGCCCGCAGATGCCGGACATCCAGCTGCGCGCGCCTTCCAGGTCGAAGCGTTGAATATGAATATCGCGTGTCTGACTAGTCATCAGGGTGCACCCACGGCGGTTAGGCGTTTGCGCGCTCTGACGGCGCGTCGTTGAACCTCGACAGCAAGTTCCAGGCCACGCCAGTGCAGTTCTCACTGGGTGGATAGCAACGGTCGACTATGTGGATAAACCCCAGAGTTTTGCGACCATCGCCCGCCATCACAGTAGCGCATGCCGTCACCGGCGCGCACCGTCATGGGTATTTGCCGCCCAACTTTGCGGCCTACGTTCCCCCATTAAGCGGATAGCCCGCCACCGCATCGCAGCCGCTTAATGGCTCACCGTTTAGCCATGATCAAAAGGTGCCTCCC |  |  |  | relative strength of promoter versus Pben278 promoter ([2]; Pant with multi-copy antR): approximately ⅕ |
